The record followed here is ChEMBL document CHEMBL1151819, “Unprecedented hemiketal cembranolides with anti-inflammatory activity from the soft coral Lobophytum durum” (2009).

Activity calls are given as the source filed them. The calls are words filed in the database; no cut-off is given here.

The subject of one experiment is Salmonella enteritidis. Put plainly: Antibacterial activity against Salmonella enteritidis ATCC 13076 at 100 ug/disk. The class given is functional, organism-based. The conditions noted are these: Salmonella enterica subsp. enterica serovar Enteritidis.
In the next experiment the test system is Human betaherpesvirus 5. Description: Inhibition of HCMV endonuclease at 1 mg/mL.
Experiment [1] concerns RAW264.7. Description: Antiinflammatory activity in LPS-stimulated mouse RAW264.7 cells assessed as reduction in COX2 protein expression at 10 uM by immunoblot analysis. The class given is functional. (In general: Immunoblotting shows a protein as a band on a membrane.)
Experiment [2] concerns RAW264.7. Put plainly: Antiinflammatory activity in LPS-stimulated mouse RAW264.7 cells assessed as reduction in iNOS protein expression at 10 uM by immunoblot analysis relative to control. The format is functional. The arrangement: scale not given: the % may be the effect or the level left.

Regarding `C=C1C(=O)O[C@H]2C[C@H]1[C@]1(O)C/C(C)=C/CC/C(C)=C/CC[C@@]2(COC(C)=O)O1` (relative stereo) [DURUMHEMIKETALOLIDE B], the outcome in the experiment with Salmonella enteritidis, in the experiment on Human betaherpesvirus 5 and in the experiment with RAW264.7 [1] was inactive. Also, in the experiment with RAW264.7 [2], the Activity was found to be 6.4%.
As for `C=C1C(=O)O[C@H]2C[C@H]1[C@]1(O)C/C(C)=C/CC/C(C)=C/CC[C@]2(COC(C)=O)O1` (relative stereo) [DURUMHEMIKETALOLIDE C], the outcome in the experiment on Salmonella enteritidis and in the experiment with Human betaherpesvirus 5 was inactive. The Activity is given as 34.7% in the experiment with RAW264.7 [1] and 0% in the experiment with RAW264.7 [2].
On to `C=C1C(=O)O[C@@H]2C[C@H]1[C@]1(O)C/C(C)=C/CC/C(C)=C/CC[C@@]2(CO)O1` (relative stereo) [DURUMHEMIKETALOLIDE A], for which the result in the experiment with Salmonella enteritidis and with Human betaherpesvirus 5 was inactive. Also, the Activity in the experiment on RAW264.7 [1] came out at 66.7%; in the experiment with RAW264.7 [2], 11%.
Take `O=C(/C=C/c1ccc(O)c(O)c1)OCCc1ccccc1` [CAFFEIC ACID PHENETHYL ESTER]: the Activity in the experiment on RAW264.7 [1] amounted to 70.2%; in the experiment with RAW264.7 [2], 1.5%.
